Tests used:
Assay in all cases: Dundee protein kinase screen
Assay type in all cases: biochemical
EPH-B1 = EPH-B1 (Homo sapiens, UniProt P54762); details: EPH-B1, 1µM; read-out: %Remaining activity at 1µM NU6300
Procedure: (§1) Prior to determining its cellular activity, we carried out a screen to assess its selectivity against a panel of 131 protein kinases under conditions that would not distinguish between a reversible or irreversible mode of action. […] These 13 kinases and 29 additional kinases, selected for their known sensitivity to other inhibitors within the purine series, were then tested in a modified screening format in which the assay was repeated following a 4-hr pre-incubation (Table S3B). […] However, conformational flexibility around the active site may promote such an interaction with a residue from another part of the structure ([Martin et al., 2012]).
(§2) Table S3, Related to Figure 4. NCL-0006300 protein kinase selectivity. (A) NU6300 was tested at a single concentration of 1µM against 131 protein kinases present in a Dundee protein kinase screen (Bain et al., 2007). Values given are % activity remaining and are the average of duplicate measurements: 0-25% (red), 26-50% (yellow), 51-80% (black) and above 81% (green). The kinase domain sequences (as defined by UniProt) of […]
(§3) have a lysine residue at a position close to CDK2 Lys88 or Lys89. However, in the structure of tyrosine-protein kinase BTK (PDB ID: 3GEN) the residue equivalent to CDK2 Asp86 is Cys481 and therefore there is the potential for a covalent adduct to be formed through this side chain. Ephrin type-B receptor 3 (UniProt entry P54753) also encodes a cysteine residue (Cys717) that by sequence alignment would be predicted to be close to the CDK2 lysine pair. (B) Selected kinases were re-tested in the Dundee kinase screen against NU6300 at a single concentration of 0.5 µM both in the standard assay format and following a 4 hour pre-incubation in the presence of NU6300. Kinases which have very low activity after the 4 hour incubation so that results might not be wholly reliable are boxed in salmon. Kinases where the activity after a 4 hour pre-incubation is < 50% that in the standard assay format are highlighted in red.

EPH-B2 = EPH-B2 (Homo sapiens, UniProt P29323); details: EPH-B2, 1µM; read-out: %Remaining activity at 1µM NU6300
Procedure: as §1, §2, §3

ERK8 = target: T1, ERK8 (Homo sapiens, UniProt Q8TD08); details: ERK8, 1µM; read-out: %Remaining activity at 1µM NU6300
T1 sequence (Q8TD08 1-544): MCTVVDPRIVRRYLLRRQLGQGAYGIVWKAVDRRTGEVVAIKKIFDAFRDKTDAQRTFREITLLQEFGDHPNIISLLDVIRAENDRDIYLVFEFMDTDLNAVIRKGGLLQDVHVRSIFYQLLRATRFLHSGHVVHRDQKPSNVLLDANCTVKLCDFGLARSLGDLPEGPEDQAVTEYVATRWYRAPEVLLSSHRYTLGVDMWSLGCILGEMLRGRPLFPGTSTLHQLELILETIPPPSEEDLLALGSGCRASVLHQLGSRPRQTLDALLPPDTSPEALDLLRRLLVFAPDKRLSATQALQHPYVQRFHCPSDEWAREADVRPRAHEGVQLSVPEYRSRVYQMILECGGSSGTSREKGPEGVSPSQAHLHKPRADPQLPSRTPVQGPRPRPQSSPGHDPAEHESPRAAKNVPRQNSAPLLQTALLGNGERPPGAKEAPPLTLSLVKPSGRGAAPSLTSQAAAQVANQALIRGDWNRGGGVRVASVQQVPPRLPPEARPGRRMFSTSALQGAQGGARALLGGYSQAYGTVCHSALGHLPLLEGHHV
Procedure: as §1, §2, §3

MKK2 = MKK2 (Homo sapiens, UniProt P36507); details: MKK2, 1µM; read-out: %Remaining activity at 1µM NU6300
Procedure: as §1, §2, §3

MKK6 = MKK6 (Homo sapiens, UniProt P52564); details: MKK6, 1µM; read-out: %Remaining activity at 1µM NU6300
Procedure: as §1, §2, §3

MLK3 = MLK3 (Homo sapiens, UniProt Q16584); details: MLK3, 1µM; read-out: %Remaining activity at 1µM NU6300
Procedure: as §1, §2, §3

MST2 = target: T2, MST2 (Homo sapiens, UniProt Q13188); details: MST2, 1µM; read-out: %Remaining activity at 1µM NU6300
T2 sequence (Q13188 1-491): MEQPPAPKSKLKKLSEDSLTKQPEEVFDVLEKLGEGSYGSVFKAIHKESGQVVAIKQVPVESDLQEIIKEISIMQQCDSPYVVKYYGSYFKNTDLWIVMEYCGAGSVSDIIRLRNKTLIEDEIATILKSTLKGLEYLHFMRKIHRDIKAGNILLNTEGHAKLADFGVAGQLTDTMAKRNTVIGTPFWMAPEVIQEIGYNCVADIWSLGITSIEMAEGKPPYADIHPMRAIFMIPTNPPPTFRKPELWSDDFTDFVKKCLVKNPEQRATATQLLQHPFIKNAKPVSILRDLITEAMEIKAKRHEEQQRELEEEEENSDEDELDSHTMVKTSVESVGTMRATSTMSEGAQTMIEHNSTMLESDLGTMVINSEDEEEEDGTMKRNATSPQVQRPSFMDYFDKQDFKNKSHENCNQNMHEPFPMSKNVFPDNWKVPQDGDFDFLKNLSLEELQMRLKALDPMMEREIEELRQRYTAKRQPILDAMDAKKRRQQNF
Procedure: as §1, §2, §3

NEK6 = NEK6 (Homo sapiens, UniProt Q9HC98); details: NEK6, 1µM; read-out: %Remaining activity at 1µM NU6300
Procedure: as §1, §2, §3

PKCζ = PKCζ (Homo sapiens, UniProt Q05513); details: read-out: %Remaining activity at 1µM NU6300
Procedure: as §1, §2, §3

PRK2 = PRK2 (Homo sapiens, UniProt Q16513); details: PRK2, 1µM; read-out: %Remaining activity at 1µM NU6300
Procedure: as §1, §2, §3

S6K1 = S6K1 (Homo sapiens, UniProt P23443); details: S6K1, 1µM; read-out: %Remaining activity at 1µM NU6300
Procedure: as §1, §2, §3

TTBK1 = TTBK1 (Homo sapiens, UniProt Q5TCY1); details: TTBK1, 1µM; read-out: %Remaining activity at 1µM NU6300
Procedure: as §1, §2, §3

TrkA = TrkA (Homo sapiens, UniProt P04629); details: read-out: %Remaining activity at 1µM NU6300
Procedure: as §1, §2, §3

p38γ MAPK = p38γ MAPK (Homo sapiens, UniProt P53778); details: read-out: %Remaining activity at 1µM NU6300
Procedure: as §1, §2, §3

Sequence of p38γ MAPK (P53778 whole entry): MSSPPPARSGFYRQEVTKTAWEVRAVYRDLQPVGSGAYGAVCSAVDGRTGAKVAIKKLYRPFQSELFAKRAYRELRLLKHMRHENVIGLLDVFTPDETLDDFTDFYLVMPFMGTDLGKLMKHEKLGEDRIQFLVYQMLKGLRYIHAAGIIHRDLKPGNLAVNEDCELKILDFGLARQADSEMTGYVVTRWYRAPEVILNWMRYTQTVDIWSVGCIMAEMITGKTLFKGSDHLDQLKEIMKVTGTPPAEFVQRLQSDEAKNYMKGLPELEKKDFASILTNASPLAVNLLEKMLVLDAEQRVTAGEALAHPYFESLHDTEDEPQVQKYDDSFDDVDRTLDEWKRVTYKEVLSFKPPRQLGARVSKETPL
Sequence of PRK2 (Q16513 whole entry): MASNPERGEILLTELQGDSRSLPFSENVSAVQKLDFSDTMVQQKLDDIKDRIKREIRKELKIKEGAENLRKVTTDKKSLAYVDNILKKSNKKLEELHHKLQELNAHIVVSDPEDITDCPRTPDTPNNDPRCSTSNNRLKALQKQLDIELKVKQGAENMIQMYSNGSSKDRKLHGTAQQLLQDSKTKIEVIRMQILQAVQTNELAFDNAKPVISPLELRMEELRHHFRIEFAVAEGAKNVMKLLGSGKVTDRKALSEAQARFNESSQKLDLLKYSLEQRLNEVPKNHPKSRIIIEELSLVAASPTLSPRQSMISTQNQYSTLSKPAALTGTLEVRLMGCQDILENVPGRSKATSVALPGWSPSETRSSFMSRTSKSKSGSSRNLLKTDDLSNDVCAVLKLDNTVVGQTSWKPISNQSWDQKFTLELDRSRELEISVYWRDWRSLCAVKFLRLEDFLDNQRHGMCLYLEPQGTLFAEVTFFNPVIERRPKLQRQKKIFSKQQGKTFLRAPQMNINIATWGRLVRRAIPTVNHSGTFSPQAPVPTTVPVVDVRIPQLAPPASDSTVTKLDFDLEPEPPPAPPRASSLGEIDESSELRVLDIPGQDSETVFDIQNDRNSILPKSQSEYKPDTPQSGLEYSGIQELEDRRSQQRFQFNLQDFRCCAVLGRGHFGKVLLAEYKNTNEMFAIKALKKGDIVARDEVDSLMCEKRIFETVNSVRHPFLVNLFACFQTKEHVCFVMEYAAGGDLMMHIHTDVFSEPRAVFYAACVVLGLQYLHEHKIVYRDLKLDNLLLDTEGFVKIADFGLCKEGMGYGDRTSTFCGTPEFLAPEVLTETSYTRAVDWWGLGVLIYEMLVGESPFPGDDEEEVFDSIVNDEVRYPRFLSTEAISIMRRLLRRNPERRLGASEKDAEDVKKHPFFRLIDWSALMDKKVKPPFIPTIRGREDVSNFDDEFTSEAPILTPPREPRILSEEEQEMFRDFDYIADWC
Sequence of MKK2 (P36507 whole entry): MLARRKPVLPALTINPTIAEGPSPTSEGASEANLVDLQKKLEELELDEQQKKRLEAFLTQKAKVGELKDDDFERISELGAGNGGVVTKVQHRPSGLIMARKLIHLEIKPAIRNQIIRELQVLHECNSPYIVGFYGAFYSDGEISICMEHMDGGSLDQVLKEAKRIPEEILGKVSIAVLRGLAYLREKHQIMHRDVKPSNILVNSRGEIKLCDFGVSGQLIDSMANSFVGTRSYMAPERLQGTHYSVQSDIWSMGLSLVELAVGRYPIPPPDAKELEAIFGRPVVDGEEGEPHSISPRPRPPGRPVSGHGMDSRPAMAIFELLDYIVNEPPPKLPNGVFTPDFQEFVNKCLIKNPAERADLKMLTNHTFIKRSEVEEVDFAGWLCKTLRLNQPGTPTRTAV
Sequence of TrkA (P04629 33-796): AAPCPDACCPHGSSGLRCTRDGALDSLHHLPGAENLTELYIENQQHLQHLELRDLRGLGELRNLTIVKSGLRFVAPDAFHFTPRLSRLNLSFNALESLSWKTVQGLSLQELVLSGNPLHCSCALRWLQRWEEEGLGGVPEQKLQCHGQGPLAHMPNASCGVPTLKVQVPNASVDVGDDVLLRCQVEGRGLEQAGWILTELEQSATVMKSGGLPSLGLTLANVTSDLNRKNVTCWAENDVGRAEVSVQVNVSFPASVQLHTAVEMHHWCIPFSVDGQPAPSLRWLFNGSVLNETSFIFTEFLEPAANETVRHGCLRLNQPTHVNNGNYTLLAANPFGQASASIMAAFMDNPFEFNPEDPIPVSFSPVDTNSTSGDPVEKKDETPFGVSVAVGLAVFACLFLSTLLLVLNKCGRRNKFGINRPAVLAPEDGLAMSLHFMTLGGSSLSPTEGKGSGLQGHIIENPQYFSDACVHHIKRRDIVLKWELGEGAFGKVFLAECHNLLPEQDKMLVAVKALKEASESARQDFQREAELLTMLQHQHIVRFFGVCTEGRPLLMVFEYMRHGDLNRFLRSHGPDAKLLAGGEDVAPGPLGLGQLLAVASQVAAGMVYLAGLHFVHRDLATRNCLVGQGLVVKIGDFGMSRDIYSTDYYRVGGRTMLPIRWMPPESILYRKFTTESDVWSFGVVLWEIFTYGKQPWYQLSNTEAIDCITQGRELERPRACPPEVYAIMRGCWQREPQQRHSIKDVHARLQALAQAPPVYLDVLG
Sequence of EPH-B2 (P29323 19-1055): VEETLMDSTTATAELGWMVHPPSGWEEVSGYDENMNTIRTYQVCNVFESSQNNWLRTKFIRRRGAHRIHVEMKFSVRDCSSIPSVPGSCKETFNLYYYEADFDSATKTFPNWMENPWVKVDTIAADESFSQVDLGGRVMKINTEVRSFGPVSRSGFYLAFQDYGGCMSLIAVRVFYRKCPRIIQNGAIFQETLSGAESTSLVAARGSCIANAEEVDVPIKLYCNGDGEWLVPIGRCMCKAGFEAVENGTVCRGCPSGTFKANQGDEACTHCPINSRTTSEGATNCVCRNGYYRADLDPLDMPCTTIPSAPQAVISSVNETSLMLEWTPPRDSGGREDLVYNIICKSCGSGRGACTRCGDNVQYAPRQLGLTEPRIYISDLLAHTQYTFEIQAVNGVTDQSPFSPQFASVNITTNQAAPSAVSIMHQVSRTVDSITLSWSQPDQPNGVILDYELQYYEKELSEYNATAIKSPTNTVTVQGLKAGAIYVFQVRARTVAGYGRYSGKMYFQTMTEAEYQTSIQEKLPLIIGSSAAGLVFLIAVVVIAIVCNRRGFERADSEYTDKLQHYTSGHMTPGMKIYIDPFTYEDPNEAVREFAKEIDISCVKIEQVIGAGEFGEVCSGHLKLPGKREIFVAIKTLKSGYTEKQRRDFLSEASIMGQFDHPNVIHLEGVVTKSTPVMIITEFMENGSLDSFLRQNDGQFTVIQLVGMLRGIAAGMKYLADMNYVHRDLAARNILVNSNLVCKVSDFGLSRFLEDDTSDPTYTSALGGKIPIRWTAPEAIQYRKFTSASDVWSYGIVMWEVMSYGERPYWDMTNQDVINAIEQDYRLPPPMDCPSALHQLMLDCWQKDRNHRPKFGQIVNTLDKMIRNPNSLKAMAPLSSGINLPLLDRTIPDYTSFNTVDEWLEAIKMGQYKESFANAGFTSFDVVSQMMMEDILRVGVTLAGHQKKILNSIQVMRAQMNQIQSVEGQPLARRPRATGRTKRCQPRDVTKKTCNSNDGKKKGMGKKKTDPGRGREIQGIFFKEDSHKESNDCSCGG
Sequence of EPH-B1 (P54762 18-984): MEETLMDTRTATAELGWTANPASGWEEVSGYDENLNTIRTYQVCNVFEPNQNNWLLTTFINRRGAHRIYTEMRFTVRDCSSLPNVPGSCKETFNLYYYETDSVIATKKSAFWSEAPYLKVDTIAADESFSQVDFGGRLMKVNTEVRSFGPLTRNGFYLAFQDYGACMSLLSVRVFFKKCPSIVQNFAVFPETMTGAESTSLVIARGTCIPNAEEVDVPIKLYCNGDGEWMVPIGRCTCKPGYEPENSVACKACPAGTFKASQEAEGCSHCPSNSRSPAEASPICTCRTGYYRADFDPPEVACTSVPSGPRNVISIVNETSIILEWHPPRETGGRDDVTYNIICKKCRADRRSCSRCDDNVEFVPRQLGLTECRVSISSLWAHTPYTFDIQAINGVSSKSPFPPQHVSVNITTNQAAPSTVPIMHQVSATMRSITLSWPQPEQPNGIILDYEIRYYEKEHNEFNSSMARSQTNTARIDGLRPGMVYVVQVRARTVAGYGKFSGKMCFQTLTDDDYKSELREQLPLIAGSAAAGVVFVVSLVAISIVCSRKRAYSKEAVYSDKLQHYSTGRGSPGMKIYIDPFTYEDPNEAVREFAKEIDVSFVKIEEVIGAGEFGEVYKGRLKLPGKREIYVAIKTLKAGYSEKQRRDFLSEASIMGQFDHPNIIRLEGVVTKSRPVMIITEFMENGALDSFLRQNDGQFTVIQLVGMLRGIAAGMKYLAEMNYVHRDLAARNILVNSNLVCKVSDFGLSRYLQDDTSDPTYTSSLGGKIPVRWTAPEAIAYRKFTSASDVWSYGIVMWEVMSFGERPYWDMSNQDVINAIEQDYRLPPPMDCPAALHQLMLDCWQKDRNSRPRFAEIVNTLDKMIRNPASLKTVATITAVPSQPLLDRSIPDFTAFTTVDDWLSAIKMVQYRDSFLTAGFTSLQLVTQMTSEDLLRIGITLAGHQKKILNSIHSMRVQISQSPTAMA
Sequence of S6K1 (P23443 whole entry): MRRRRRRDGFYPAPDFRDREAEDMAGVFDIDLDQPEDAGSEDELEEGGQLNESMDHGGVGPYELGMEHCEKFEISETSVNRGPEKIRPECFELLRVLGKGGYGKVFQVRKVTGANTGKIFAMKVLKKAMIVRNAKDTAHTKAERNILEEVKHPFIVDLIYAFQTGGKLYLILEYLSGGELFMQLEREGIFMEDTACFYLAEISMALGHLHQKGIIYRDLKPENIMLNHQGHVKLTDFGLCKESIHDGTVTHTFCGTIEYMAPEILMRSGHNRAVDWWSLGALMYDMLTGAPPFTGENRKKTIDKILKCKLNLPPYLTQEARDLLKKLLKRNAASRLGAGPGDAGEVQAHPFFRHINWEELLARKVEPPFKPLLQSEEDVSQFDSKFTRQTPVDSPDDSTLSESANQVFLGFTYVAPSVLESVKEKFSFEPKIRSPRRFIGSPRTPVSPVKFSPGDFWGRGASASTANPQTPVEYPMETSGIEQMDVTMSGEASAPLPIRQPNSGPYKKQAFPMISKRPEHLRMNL

**Q.** With `C=CS(=O)(=O)c1ccc(Nc2nc(OCC3CCCCC3)c3nc[nH]c3n2)cc1` [NU6300, 6-(cyclohexylmethoxy)-N-(4-(vinylsulfonyl)phenyl)-9H-purin-2-amine] as the compound, how does the remaining activity at 1 µM (EPH-B1) read?
**A.** The remaining activity at 1 µM was 78%.

**Q.** And the remaining activity at 1 µM (EPH-B2)?
**A.** The remaining activity at 1 µM was 96%.

**Q.** What about the remaining activity at 1 µM (ERK8) of the same compound?
**A.** The remaining activity at 1 µM was 24%.

**Q.** And the remaining activity at 1 µM (MKK2)?
**A.** Its remaining activity at 1 µM is 84%.

**Q.** What about the remaining activity at 1 µM (MKK6) of the same compound?
**A.** Its remaining activity at 1 µM is 85%.

**Q.** And the remaining activity at 1 µM (MLK3)?
**A.** Its remaining activity at 1 µM is 16%.

**Q.** What about the remaining activity at 1 µM (MST2) of the same compound?
**A.** Its remaining activity at 1 µM is 41%.

**Q.** What about the remaining activity at 1 µM (NEK6) of the same compound?
**A.** Its remaining activity at 1 µM is 70%.

**Q.** What about the remaining activity at 1 µM (PKCζ) of the same compound?
**A.** Its remaining activity at 1 µM is 100%.

**Q.** What about the remaining activity at 1 µM (PRK2) of the same compound?
**A.** Its remaining activity at 1 µM is 50%.

**Q.** What about the remaining activity at 1 µM (S6K1) of the same compound?
**A.** The remaining activity at 1 µM was 82%.

**Q.** What about the remaining activity at 1 µM (TTBK1) of the same compound?
**A.** The remaining activity at 1 µM was 83%.

**Q.** And the remaining activity at 1 µM (TrkA)?
**A.** Its remaining activity at 1 µM is 59%.

**Q.** And the remaining activity at 1 µM (p38γ MAPK)?
**A.** Its remaining activity at 1 µM is 104%.

From publication PMC4579270, “Identification and Characterization of an Irreversible Inhibitor of CDK2” (Chemistry & Biology, 2015)
